{"source": "paper PMC4021065", "about": "“A novel, non-radioactive eukaryotic in vitro transcription assay for sensitive quantification of RNA polymerase II activity” (BMC Molecular Biology, 2014)", "key": {"[1]": {"target": "T1, RNA polymerase II (Homo sapiens, UniProt P24928)", "T1 construct": "a well-defined nuclear extract providing the RNA polymerase II and a basal set of transcription factors; purchased Promega; host or cells: HeLa cell nuclear extract (endogenous enzyme)", "experiment": "In vitro transcription (HeLaScribe nuclear extract) with primer extension and PCR gel detection", "assay_type": "biochemical", "experimental": "Transcription reactions were set up as using the Promega HeLaScribe Nuclear Extract in vitro Transcription System were set up as described by the manufacturer with some modifications. The reaction volume was doubled to 50 μl. A master mix was prepared from a volume transcription buffer (20 mM HEPES, pH 7.9, 100 mM KCl, 0.2 mM EDTA, 0.5 mM DTT, 20% glycerol) corresponding to 22 μl minus the nuclear extract volume, MgCl2 to a final concentration of 3 mM, 40 Units RNase inhibitor, DNA template (1 μg pEGFP-N1 plasmid or 150 ng linear DNA fragment CMV-EGFP, respectively) and the nuclear extract following the manufacturer’s recipe. Aliquots of the master mix were transferred into reaction tubes containing different α-amanitin concentrations or water and incubated for 20 min at room temperature. Standard transcription reactions containing no α-amanitin were referred as ‘positive’, reactions containing α-amanitin or other inhibitors as ’inhibited’. A standard reaction containing no α-amanitin/inhibitors but also no NTPs was used as a ‘negative control transcription’. […]\nThe purified RNA was once more DNase-treated using the Epicentre BaselineZero DNase kit as recommended by the manufacturer, 8.8 μl of the RNA being digested in a final volume of 10 μl. […] After amplification, the products were analyzed by gel electrophoresis onto 1.5% agarose."}, "[2]": {"target": "T1, RNA polymerase II", "experiment": "In vitro transcription with primer extension and qPCR (EGFP-LNA1 probe) detection, pEGFP-N1 / CMV-EGFP templates", "assay_type": "biochemical", "experimental": "Transcription reactions were set up as using the Promega HeLaScribe Nuclear Extract in vitro Transcription System were set up as described by the manufacturer with some modifications. The reaction volume was doubled to 50 μl. A master mix was prepared from a volume transcription buffer (20 mM HEPES, pH 7.9, 100 mM KCl, 0.2 mM EDTA, 0.5 mM DTT, 20% glycerol) corresponding to 22 μl minus the nuclear extract volume, MgCl2 to a final concentration of 3 mM, 40 Units RNase inhibitor, DNA template (1 μg pEGFP-N1 plasmid or 150 ng linear DNA fragment CMV-EGFP, respectively) and the nuclear extract following the manufacturer’s recipe. Aliquots of the master mix were transferred into reaction tubes containing different α-amanitin concentrations or water and incubated for 20 min at room temperature. Standard transcription reactions containing no α-amanitin were referred as ‘positive’, reactions containing α-amanitin or other inhibitors as ’inhibited’. A standard reaction containing no α-amanitin/inhibitors but also no NTPs was used as a ‘negative control transcription’. The reactions were started by the addition of the NTP mix to a final concentration of 400 μM each, except for the negative control where water was added. After incubating for 30 min at 30°C, the reactions were stopped by diluting with 400 μl of the RLT buffer from the Qiagen RNeasy Micro kit and stored at −80°C until proceeding with RNeasy cleanup. This was performed as recommended by the manufacturer, including on-column DNase treatment but without the addition of carrier RNA. The RNA was eluted using 15 μl water and stored at −80°C.\nThe purified RNA was once more DNase-treated using the Epicentre BaselineZero DNase kit as recommended by the manufacturer, 8.8 μl of the RNA being digested in a final volume of 10 μl. As a second negative control, 50 ng of the linear DNA fragment CMV-EGFP were directly DNase-digested and further processed as the RNA samples (‘DNase control’). For reverse transcription with the Qiagen Sensiscript RT kit, 2 μl of the digestion reaction and 1 μM EGFPrev1 primer (Table 1) were used in a final reaction volume of 20 μl. After reaction, 1 μl of the reverse transcription mix was transferred to PCR tubes containing 24 μl PCR mix aliquots. The standard PCR amplification was performed using the Epicentre Failsafe PCR system with the Mix A and the EGFPrev1 and EGFPfrw1 (Table 1) primer mix. Positive PCR control reactions contained 50 ng pEGFP-N1 plasmid; negative PCR controls contained no DNA. After amplification, the products were analyzed by gel electrophoresis onto 1.5% agarose.\nFor quantitation using SYBR detection, the Qiagen QuantiFast SYBR green qPCR kit was used. 1 μl of the reverse transcription mix was amplified in 25 μl reaction mix containing 500 nM of each EGFP-rev1 and EGFP-frw1 primer. For quantitation using the sequence-specific LNA probe EGFP-LNA1 at 250 nM, same primer set as well as an alternative primer set (EGFPfrw2 and EGFPrew2, Table 1) at 500 nM each and Sigma Jumpstart Taq ReadyMix for qPCR were used. 2 μl of the reverse transcription reaction were diluted into qPCR reactions with a final volume of 20 μl and qPCR performed in a Bio-Rad DNAEngine lightcycler. A qPCR standard curve was prepared from the CMV-EGFP DNA fragment and used for RNA copy number calculations. The amount of RNA in the inhibited probes was related to the RNA amount detected for the positive transcription reaction."}, "[3]": {"target": "T1, RNA polymerase II", "assay_type": "biochemical", "conditions": "for IC50: qPCR, read-out: IC50 (RNA synthesis)"}, "[4]": {"target": "T1, RNA polymerase II", "experiment": "biochemical", "conditions": "for IC50: QuantiGene, read-out: IC50 (RNA synthesis)"}, "[5]": {"test_system": "RNA polymerase II", "conditions": "cited from earlier work"}, "[6]": {"conditions": "200 nM, template HS-DNA_mut (TATA box mutated)"}}, "note": "Like-named read-outs stand apart in the source and are kept apart here.", "data": [{"compound": "CC[C@H](C)[C@@H]1NC(=O)CNC(=O)[C@@H]2Cc3c([nH]c4cc(O)ccc34)[S@+]([O-])C[C@H](NC(=O)CNC1=O)C(=O)N[C@@H](CC(N)=O)C(=O)N1C[C@H](O)C[C@H]1C(=O)N[C@@H]([C@@H](C)[C@@H](O)CO)C(=O)N2", "note": "[α-amanitin]", "values": [{"measurement": "inhibitory effect on transcription (PCR product on gel)", "setting": "[1]; linear CMV-EGFP template, 400, 100 and 20 μM, Figure 2B", "result": "gradually increasing inhibitory effects"}, {"measurement": "amount of PCR product after transcription", "setting": "[1]; pEGFP-N1 plasmid template, 100 μM, Figure 2A", "result": "clearly diminished amount of PCR product"}, {"measurement": "qPCR C(T) value of inhibited transcription", "setting": "[2]; linear CMV-EGFP template, 2 μM, uninhibited C(T) 16.1, Figure 3B", "result": 24.5}, {"measurement": "qPCR C(T) value of inhibited transcription", "setting": "[2]; linear CMV-EGFP template, 20 μM, uninhibited C(T) 16.1, Figure 3B", "result": 28.1}, {"measurement": "qPCR C(T) value of inhibited transcription", "setting": "[2]; linear CMV-EGFP template, 50 μM, uninhibited C(T) 16.1, Figure 3B", "result": 37.0}, {"measurement": "qPCR C(T) value of inhibited transcription", "setting": "[2]; linear CMV-EGFP template, 100 μM, uninhibited C(T) 16.1, Figure 3B, C", "result": 27.9}, {"measurement": "qPCR C(T) value of inhibited transcription", "setting": "[2]; pEGFP-N1 plasmid template, 100 μM, uninhibited C(T) 17.6 / 18.0, Figure 3A, C", "result": 21.7}, {"measurement": "inhibitory effect, short incubation vs standard (times lower)", "setting": "[3]; 10 min, HS-DNA_long vs 30 min, standard template", "result": "ca. 10 ×"}, {"measurement": "inhibition of transcription efficacy", "setting": "[4]; 200 nM, both templates (standard HS-DNA and TATA box mutant)", "result": "88 ± 1", "unit": "%"}, {"measurement": "% RNA synthesis (compared to respective positive control)", "setting": "[4]; [6]", "result": "12% ± 1%"}, {"measurement": "Signal (RLU average)", "setting": "[4]; [6]", "result": 130255, "unit": "RLU"}, {"measurement": "% RNA synthesis (compared to respective positive control)", "setting": "[4]; 200 nM, template HS-DNA_std", "result": "12% ± 1%"}, {"measurement": "Signal (RLU average)", "setting": "[4]; 200 nM, template HS-DNA_std", "result": 161585, "unit": "RLU"}, {"measurement": "IC50", "setting": "[4]; Bead-HS-DNA template, Figure 5C", "result": 5.7, "unit": "µM"}, {"measurement": "IC50", "setting": "[4]; HS-DNA_long template, 10 min at 30°C, Figure 6C", "result": 0.054, "unit": "µM"}, {"measurement": "IC50", "setting": "[4]; standard HS-DNA template, 30 min at 30°C, Figure 6A", "result": 0.004, "unit": "µM"}]}, {"compound": "CCC(C)C1NC(=O)CNC(=O)C2Cc3c([nH]c4cc(OC)ccc34)[S+]([O-])CC(NC(=O)CNC1=O)C(=O)NC(CC(N)=O)C(=O)N1CC(O)CC1C(=O)NC(C(C)C(C)O)C(=O)N2", "note": "(stereo not shown) [6′–O-methyl-γ-amanitin]", "values": [{"measurement": "potency as RNA polymerase II inhibitor relative to α-amanitin (less potent)", "setting": "[5]", "result": "about two-fold"}]}, {"compound": "CN1CC[C@H](c2c(O)cc(O)c3c(=O)cc(-c4ccccc4Cl)oc23)[C@H](O)C1", "note": "[flavopiridol]", "values": [{"measurement": "IC50", "setting": "[3]; HS-DNA_long template, 10 min at 30°C, second set of reactions", "result": 0.94, "unit": "µM"}, {"measurement": "IC50", "setting": "[3]; standard HS-DNA template, 30 min at 30°C, first set of reactions", "result": "> 125", "unit": "µM"}]}]}
